Patent publication US20250134889A1, “TARGETING IRE1 KINASE AND FMRP FOR PROPHYLAXIS, MANAGEMENT AND TREATMENT OF ATHEROSCLEROSIS” (CEDARS-SINAI MEDICAL CENTER, priority 2022, published 2025)

Test system: PM
Assay: In vivo efferocytosis
Design: species or system mouse
Settings: C57BL/6, AMG-18 30 mg/kg 8 hours, CFSE-labeled ACs i.p. 1.5 hours
Source text: FIGS. 3A-3G depict that FMRP-deficiency increases efferocytosis in vivo. (For all images scale bar=50 μm; Red: Macrophages, Green: AC/AC-1, Violet: AC-2. Data are mean±SEM. Unpaired t-test with Welch's correction. * P≤0.05, ** P≤0.01, *** P≤0.001.) • 3A-3E. In vitro and in vivo efferocytosis experiments, where percentage of macrophages F4/80^+ (red) that ingested apoptotic cells (AC) labeled with carboxyfluorescein succinimidyl ester (CFSE)^+ (green) were reported as % efferocytosis. • 3A. BMDMs were transfected with Fmr1- or control-siRNA and incubated CFSE-labeled AC for the indicated hours (n=4). • 3B. Fmr1^+/+ and Fmr1^−/− BMDMs were treated with PA (500 μM) for 6 hours and then incubated with CFSE-labeled ACs for 4 hours (n=4). • 3C. Fmr1^+/+ and Fmr1^−/− mice were fed WD (16 weeks) and injected intraperitoneally with CFSE-labeled AC (1.5 hours), followed by PM elicitation (n=4-5). • 3D. BMDM were pre-treated either with vehicle (DMSO) or AMG-18 (5 μM) for 1 hour then incubated with CFSE-labeled ACs for 4 hours (n=4). • 3E. […] In vitro continuous efferocytosis experiments, where macrophages were stained for F4/80^+ (red), AC were labeled with CFSE (AC-1; green) or Violet (AC2; violet). % continuous efferocytosis was determined by the ratio of F4/80^+, CFSE^+ and Violet^+ (triple positive) cells to total F4/80^+/+ and CFSE^+ (double positive) cells. • 3F. […]

Cc1ccc2c(NS(=O)(=O)c3ccccc3Cl)cccc2c1Oc1ncccc1-c1ccnc(N[C@H]2CCCNC2)n1 [AMG-18]
efferocytosis of ACs by PM in vivo: induced
